Reference: PubChem BioAssay (NCI)
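Values below derive from 48-hour exposures of cells grown in 96-well plates, with endpoints linearly interpolated between the two concentrations bracketing the appropriate inhibition level. The concentration for full growth arrest is given as TGI.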

Columns and labels:
Assay in all cases: DTP human tumour cell line panel, 48 h
[1] = test system: 786-0 renal
[2] = test system: A498 renal
[3] = test system: A549 NSCLC
[4] = test system: ACHN renal
[5] = test system: BT-549 breast
[6] = test system: CAKI-1 renal
[7] = test system: CCRF-CEM leukemia
[8] = test system: COLO 205 colon
[9] = test system: DU-145 prostate
[10] = test system: HCC-2998 colon
[11] = test system: HCT-116 colon
[12] = test system: HCT-15 colon
[13] = test system: HOP-62 NSCLC
[14] = test system: HOP-92 NSCLC
[15] = test system: HT29 colon
[16] = test system: IGROV1 ovarian
[17] = test system: K-562 leukemia
[18] = test system: KM12 colon
[19] = test system: M14 melanoma
[20] = test system: MALME-3M melanoma
[21] = test system: MCF7 breast
[22] = test system: MDA-MB-231 breast
[23] = test system: MDA-MB-435
[24] = test system: MDA-N
[25] = test system: MOLT-4 leukemia
[26] = test system: NCI-H226 lung
[27] = test system: NCI-H23 lung
[28] = test system: NCI-H460 lung
[29] = test system: NCI-H522 lung
[30] = test system: NCI/ADR-RES ovarian
[31] = test system: OVCAR-3 ovarian
[32] = test system: OVCAR-4 ovarian
[33] = test system: OVCAR-5 ovarian
[34] = test system: OVCAR-8 ovarian
[35] = test system: PC-3 prostate
[36] = test system: RPMI-8226 leukemia
[37] = test system: RXF 393 renal
[38] = test system: SF-268 CNS
[39] = test system: SF-295 CNS
[40] = test system: SF-539 CNS
[41] = test system: SK-MEL-2 melanoma
[42] = test system: SK-MEL-28 melanoma
[43] = test system: SK-MEL-5 melanoma
[44] = test system: SK-OV-3 ovarian
[45] = test system: SN12C renal
[46] = test system: SR leukemia
[47] = test system: SW-620 colon
[48] = test system: T-47D breast
[49] = test system: TK-10 renal
[50] = test system: U251 CNS
[51] = test system: UACC-257 melanoma
[52] = test system: UACC-62 melanoma
[53] = test system: UO-31 renal
[54] = test system: EKVX NSCLC
[55] = test system: HL-60(TB) leukemia
[56] = test system: HS 578T breast
[57] = test system: LOX IMVI melanoma
[58] = test system: SNB-19 CNS

FC(F)(Sc1ccccc1)c1nc2ccccc2o1
TGI [1]: > 100 µM | TGI [2]: > 100 µM | TGI [3]: > 100 µM | TGI [4]: > 100 µM | TGI [5]: > 100 µM | TGI [6]: > 100 µM | TGI [7]: 55.5 µM | TGI [8]: > 100 µM | TGI [9]: > 100 µM | TGI [10]: > 100 µM | TGI [11]: > 100 µM | TGI [12]: > 100 µM | TGI [13]: > 100 µM | TGI [14]: > 100 µM | TGI [15]: > 100 µM | TGI [16]: > 100 µM | TGI [17]: > 100 µM | TGI [18]: > 100 µM | TGI [19]: > 100 µM | TGI [20]: > 100 µM | TGI [21]: > 100 µM | TGI [22]: > 100 µM | TGI [23]: > 100 µM | TGI [24]: > 100 µM | TGI [25]: 52.2 µM | TGI [26]: > 100 µM | TGI [27]: > 100 µM | TGI [28]: > 100 µM | TGI [29]: > 100 µM | TGI [30]: > 100 µM | TGI [31]: > 100 µM | TGI [32]: > 100 µM | TGI [33]: > 100 µM | TGI [34]: > 100 µM | TGI [35]: > 100 µM | TGI [36]: > 100 µM | TGI [37]: > 100 µM | TGI [38]: > 100 µM | TGI [39]: > 100 µM | TGI [40]: > 100 µM | TGI [41]: > 100 µM | TGI [42]: > 100 µM | TGI [43]: > 100 µM | TGI [44]: 69.4 µM | TGI [45]: > 100 µM | TGI [46]: 73.7 µM | TGI [47]: > 100 µM | TGI [48]: > 100 µM | TGI [49]: > 100 µM | TGI [50]: > 100 µM | TGI [51]: > 100 µM | TGI [52]: > 100 µM | TGI [53]: > 100 µM

OCCN(CCO)c1ccc2c(c1)Cc1ccccc1-2
TGI [1]: > 100 µM | TGI [2]: 80.5 µM | TGI [3]: > 100 µM | TGI [4]: > 100 µM | TGI [6]: 32 µM | TGI [7]: > 100 µM | TGI [8]: 35.7 µM | TGI [9]: > 100 µM | TGI [54]: > 100 µM | TGI [10]: > 100 µM | TGI [11]: > 100 µM | TGI [12]: > 100 µM | TGI [55]: > 100 µM | TGI [13]: > 100 µM | TGI [14]: 73.1 µM | TGI [56]: > 100 µM | TGI [15]: 37.8 µM | TGI [17]: > 100 µM | TGI [18]: > 100 µM | TGI [57]: > 100 µM | TGI [19]: > 100 µM | TGI [20]: > 100 µM | TGI [21]: 60.5 µM | TGI [22]: > 100 µM | TGI [23]: > 100 µM | TGI [24]: > 100 µM | TGI [25]: > 100 µM | TGI [26]: > 100 µM | TGI [27]: > 100 µM | TGI [28]: 50 µM | TGI [30]: > 100 µM | TGI [31]: 45.9 µM | TGI [32]: > 100 µM | TGI [33]: > 100 µM | TGI [34]: > 100 µM | TGI [35]: > 100 µM | TGI [36]: > 100 µM | TGI [38]: > 100 µM | TGI [39]: > 100 µM | TGI [40]: > 100 µM | TGI [41]: 63.2 µM | TGI [42]: > 100 µM | TGI [43]: > 100 µM | TGI [44]: > 100 µM | TGI [45]: > 100 µM | TGI [58]: > 100 µM | TGI [46]: > 100 µM | TGI [47]: > 100 µM | TGI [48]: 57.8 µM | TGI [49]: 55 µM | TGI [50]: > 100 µM | TGI [51]: 96.7 µM | TGI [52]: > 100 µM | TGI [53]: > 100 µM
